Calls of active or inactive are those of the source. Cut-off read from the data, not from the text of the source, for most assays here: actives have a measured Kd and inactives only a lower limit.

Assay [1] addresses T1, General transcription and DNA repair factor IIH helicase subunit XPD (Homo sapiens, UniProt P18074).
T1 sequence (P18074 whole entry): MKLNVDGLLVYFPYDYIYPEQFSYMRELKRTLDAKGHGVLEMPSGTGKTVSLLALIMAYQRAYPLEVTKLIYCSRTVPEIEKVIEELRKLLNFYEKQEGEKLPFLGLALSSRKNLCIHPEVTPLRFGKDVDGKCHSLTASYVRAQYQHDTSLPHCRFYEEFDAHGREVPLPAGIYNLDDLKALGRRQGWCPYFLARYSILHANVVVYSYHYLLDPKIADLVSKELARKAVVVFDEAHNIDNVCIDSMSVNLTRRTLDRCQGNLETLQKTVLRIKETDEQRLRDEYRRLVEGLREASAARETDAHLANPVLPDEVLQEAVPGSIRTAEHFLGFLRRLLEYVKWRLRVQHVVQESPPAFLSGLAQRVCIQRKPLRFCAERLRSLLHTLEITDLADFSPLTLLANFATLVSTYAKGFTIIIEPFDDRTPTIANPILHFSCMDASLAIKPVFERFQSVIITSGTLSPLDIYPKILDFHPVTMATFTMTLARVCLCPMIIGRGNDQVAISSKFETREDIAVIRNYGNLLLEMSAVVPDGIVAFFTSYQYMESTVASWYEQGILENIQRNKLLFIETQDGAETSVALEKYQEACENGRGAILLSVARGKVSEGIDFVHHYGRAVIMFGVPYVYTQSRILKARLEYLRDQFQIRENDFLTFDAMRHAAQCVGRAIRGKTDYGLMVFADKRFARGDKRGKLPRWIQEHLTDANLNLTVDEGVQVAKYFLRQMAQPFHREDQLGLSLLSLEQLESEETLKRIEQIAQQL
The following applies: read-out: Kd apparent; k-562, colo 205, sk-n-be(2) and mv-4-11.

The target in assay [2] is Mitogen-activated protein kinase 10 (Homo sapiens, UniProt P53779).
Chain of Mitogen-activated protein kinase 10 (P53779 whole entry): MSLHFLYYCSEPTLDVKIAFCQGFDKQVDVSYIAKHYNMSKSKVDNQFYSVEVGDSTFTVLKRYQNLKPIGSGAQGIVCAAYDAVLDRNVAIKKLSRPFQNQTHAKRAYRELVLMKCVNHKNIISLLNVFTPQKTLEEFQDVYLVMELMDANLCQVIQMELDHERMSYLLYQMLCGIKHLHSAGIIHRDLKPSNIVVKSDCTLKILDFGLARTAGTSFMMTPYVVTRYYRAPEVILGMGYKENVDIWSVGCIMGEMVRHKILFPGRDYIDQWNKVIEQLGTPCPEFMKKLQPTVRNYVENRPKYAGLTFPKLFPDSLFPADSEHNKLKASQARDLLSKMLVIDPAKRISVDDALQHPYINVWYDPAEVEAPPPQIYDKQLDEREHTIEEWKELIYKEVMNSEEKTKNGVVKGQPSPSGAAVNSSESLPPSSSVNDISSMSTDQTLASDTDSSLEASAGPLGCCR
Assay [3] concerns the target T2, Aurora kinase A (Homo sapiens, UniProt O14965).
T2 sequence (O14965 whole entry): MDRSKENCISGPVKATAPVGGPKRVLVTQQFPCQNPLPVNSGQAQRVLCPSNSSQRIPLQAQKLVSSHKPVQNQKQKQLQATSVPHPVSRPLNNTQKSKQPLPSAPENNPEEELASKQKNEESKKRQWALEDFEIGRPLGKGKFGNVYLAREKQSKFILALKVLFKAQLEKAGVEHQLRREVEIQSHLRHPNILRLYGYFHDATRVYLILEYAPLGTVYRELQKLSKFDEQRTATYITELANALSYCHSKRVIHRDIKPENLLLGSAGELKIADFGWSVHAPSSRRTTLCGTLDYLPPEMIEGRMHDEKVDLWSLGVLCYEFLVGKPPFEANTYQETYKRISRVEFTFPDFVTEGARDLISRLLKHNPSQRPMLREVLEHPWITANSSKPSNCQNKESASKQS

The target of assay [4] is T3, Scaffold protein ILK (Homo sapiens, UniProt Q13418).
T3 sequence (Q13418 whole entry): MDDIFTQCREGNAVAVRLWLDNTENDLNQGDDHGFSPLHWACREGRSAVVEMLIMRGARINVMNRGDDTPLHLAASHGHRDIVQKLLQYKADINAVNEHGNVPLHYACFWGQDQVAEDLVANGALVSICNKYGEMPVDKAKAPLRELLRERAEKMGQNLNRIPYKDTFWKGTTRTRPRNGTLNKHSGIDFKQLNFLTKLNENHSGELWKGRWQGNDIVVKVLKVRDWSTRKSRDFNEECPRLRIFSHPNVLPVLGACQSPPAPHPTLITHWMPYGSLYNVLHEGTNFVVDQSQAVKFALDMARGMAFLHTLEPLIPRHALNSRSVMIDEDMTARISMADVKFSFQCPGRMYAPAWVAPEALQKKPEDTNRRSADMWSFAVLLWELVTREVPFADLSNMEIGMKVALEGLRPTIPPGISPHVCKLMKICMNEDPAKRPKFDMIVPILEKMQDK

For assay [5], the target named is T4, Glycine--tRNA ligase (Homo sapiens, UniProt P41250).
T4 sequence (P41250 whole entry): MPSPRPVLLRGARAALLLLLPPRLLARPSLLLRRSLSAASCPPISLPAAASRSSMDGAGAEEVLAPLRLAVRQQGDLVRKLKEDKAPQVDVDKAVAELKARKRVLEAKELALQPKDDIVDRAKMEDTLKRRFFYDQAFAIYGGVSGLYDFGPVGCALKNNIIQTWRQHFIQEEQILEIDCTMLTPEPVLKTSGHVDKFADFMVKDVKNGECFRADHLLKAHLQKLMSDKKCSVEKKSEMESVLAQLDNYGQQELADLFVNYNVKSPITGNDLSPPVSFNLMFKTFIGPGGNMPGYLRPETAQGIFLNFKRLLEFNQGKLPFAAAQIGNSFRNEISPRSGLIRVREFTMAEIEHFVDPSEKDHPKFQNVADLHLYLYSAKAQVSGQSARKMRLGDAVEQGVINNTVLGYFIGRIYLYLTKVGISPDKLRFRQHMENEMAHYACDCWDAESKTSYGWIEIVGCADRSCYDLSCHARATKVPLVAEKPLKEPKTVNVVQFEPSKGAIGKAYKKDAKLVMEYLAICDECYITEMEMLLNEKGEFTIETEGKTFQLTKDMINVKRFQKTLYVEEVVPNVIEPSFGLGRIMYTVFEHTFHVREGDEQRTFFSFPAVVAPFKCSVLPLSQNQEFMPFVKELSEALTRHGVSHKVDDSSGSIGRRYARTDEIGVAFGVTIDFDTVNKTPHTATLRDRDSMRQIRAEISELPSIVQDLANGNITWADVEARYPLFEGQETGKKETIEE

In assay [6] the target is Serine/threonine-protein kinase SIK3 (Homo sapiens, UniProt Q9Y2K2).
Chain of Serine/threonine-protein kinase SIK3 (Q9Y2K2 whole entry): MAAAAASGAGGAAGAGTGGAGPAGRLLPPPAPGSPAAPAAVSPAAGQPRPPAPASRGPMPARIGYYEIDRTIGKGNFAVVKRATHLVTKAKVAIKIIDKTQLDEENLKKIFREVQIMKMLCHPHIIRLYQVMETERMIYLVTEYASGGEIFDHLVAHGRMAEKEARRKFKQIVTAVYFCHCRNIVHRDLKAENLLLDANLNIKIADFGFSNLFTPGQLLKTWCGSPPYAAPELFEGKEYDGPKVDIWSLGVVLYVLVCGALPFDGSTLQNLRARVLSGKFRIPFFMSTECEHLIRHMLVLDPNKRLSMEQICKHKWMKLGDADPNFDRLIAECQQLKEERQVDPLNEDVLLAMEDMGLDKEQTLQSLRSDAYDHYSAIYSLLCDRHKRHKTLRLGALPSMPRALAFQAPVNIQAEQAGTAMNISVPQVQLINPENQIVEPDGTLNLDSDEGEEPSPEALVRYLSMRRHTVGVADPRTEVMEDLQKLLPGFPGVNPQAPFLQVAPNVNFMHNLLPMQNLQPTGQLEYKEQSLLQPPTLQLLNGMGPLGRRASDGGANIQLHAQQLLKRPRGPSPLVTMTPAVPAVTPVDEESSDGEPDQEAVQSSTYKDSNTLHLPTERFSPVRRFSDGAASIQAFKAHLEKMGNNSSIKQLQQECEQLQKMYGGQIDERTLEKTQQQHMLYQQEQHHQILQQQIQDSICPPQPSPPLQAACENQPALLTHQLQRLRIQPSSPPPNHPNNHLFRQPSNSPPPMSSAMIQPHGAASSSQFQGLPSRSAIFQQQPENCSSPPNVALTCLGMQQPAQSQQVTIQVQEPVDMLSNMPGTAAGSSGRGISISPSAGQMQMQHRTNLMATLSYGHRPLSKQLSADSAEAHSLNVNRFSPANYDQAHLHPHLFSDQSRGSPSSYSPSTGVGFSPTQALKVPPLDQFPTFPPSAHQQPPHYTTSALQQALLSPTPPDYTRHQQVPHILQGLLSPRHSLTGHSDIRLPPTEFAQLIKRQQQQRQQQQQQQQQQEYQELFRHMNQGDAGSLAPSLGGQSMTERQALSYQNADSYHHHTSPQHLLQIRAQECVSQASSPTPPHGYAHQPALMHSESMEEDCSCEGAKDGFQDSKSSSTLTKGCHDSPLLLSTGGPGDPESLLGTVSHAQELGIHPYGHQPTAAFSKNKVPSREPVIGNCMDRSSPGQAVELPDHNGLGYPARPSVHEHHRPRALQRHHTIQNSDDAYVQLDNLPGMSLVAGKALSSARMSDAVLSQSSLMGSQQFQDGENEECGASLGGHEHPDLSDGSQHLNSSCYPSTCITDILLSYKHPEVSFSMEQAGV
Note: in the data inactive means no Kd found up to 30 µM.

Consider `O=C(NC[C@H](O)CO)c1ccncc1Nc1ccc(I)cc1F` [PIMASERTIB], for which the Kd in assay [1], in assay [2], in assay [3], in assay [4], in assay [5] and in assay [6] was > 30 µM (inactive) each time.

For the compound `CCc1cc2c(cc1N1CCC(N3CCOCC3)CC1)C(C)(C)c1[nH]c3cc(C#N)ccc3c1C2=O` [ALECTINIB], the Kd in assay [1], in assay [2], in assay [3], in assay [4], in assay [5] and in assay [6] was > 30 µM (inactive) each time.

Take `Cc1c(NC(=O)OC[C@@H]2COCCN2)cn2ncnc(Nc3ccc4c(cnn4Cc4cccc(F)c4)c3)c12` [AC-480]: the Kd in assay [1], in assay [2], in assay [3], in assay [4], in assay [5] and in assay [6] was > 30 µM (inactive) each time.

`COc1cc(Nc2ncc(F)c(Nc3ccc4c(n3)N(COP(=O)(O)O)C(=O)C(C)(C)O4)n2)cc(OC)c1OC` [FOSTAMATINIB]: the Kd is > 30 µM (inactive) in assay [1]; > 30 µM (inactive) in assay [2]; 0.3 µM (active) in assay [3]; > 30 µM (inactive) in assay [4]; > 30 µM (inactive) in assay [5]; > 30 µM (inactive) in assay [6].

As to `CC(C)CC(=O)Nc1[nH]nc2c1CN(C(=O)C1CCN(C)CC1)C2(C)C` [PHA-793887], the Kd in assay [1] is 0.01 µM (active); in assay [2], > 30 µM (inactive); in assay [3], > 30 µM (inactive); in assay [4] it was > 30 µM (inactive); in assay [5], > 30 µM (inactive); in assay [6], > 30 µM (inactive).

In the case of `COc1cccc2cc(-c3nc([C@H]4CC[C@H](C(=O)O)CC4)n4ncnc(N)c34)[nH]c12` [OSI-027], the Kd is > 30 µM (inactive) in assay [1]; 1.62 µM in assay [2]; > 30 µM (inactive) in assay [3]; > 30 µM (inactive) in assay [4]; > 30 µM (inactive) in assay [5]; > 30 µM (inactive) in assay [6].

On to `COc1ccc2c(OCc3nnc4ccc(-c5ccccc5)nn34)ccnc2c1` [AMG-208], for which the Kd in assay [1], in assay [2], in assay [3], in assay [4], in assay [5] and in assay [6] was > 30 µM (inactive) each time.

For the compound `COc1cc2ncnc(Nc3ccc(F)c(Cl)c3)c2cc1NC(=O)/C=C/CN1CCCCC1` [DACOMITINIB ANHYDROUS], the Kd in assay [1], in assay [2], in assay [3], in assay [4], in assay [5] and in assay [6] was > 30 µM (inactive) each time.

As to `CC[C@@](C)(Nc1ccnc(-c2c[nH]c3ncccc23)n1)C(=O)NCC(F)(F)F` [DECERNOTINIB], the Kd in assay [1], in assay [2], in assay [3], in assay [4], in assay [5] and in assay [6] was > 30 µM (inactive) each time.

`O=C(NOC[C@H](O)CO)c1ccc(F)c(F)c1Nc1ccc(I)cc1F` [MIRDAMETINIB]: the Kd in assay [1], in assay [2], in assay [3], in assay [4], in assay [5] and in assay [6] was > 30 µM (inactive) each time.

As to `NC[C@@](O)(c1ccc(Cl)cc1)c1ccc(-c2cn[nH]c2)cc1` [AT-13148], the Kd in assay [1], in assay [2], in assay [3], in assay [4], in assay [5] and in assay [6] was > 30 µM (inactive) throughout.

Source of the values: ChEMBL document CHEMBL3991601, “The target landscape of clinical kinase drugs” (Science, 2017).
